Assay results from patent US12492208B2, “Crystal of pyrimidine compound” (TAIHO PHARMACEUTICAL CO., LTD., priority 2020, dated 2025).
Where two headings read alike, the source gives them in different places.

Key:
[1] = Dynamic vapor sorption (DVS) test; type: physicochemical; settings: for hygroscopicity determination: from mass increase under 95% relative humidity; for Weight change rate, Adsorption / Weight change rate, Desorption: 25° C.
Protocol: Dynamic vapor sorption tests were conducted using a type II crystal of compound (I) with1 equivalent of fumaric acid, a free-form type II crystal of the same, a free-form type I crystal of the same, a type V crystal of the same with 1 equivalent of fumaric acid, and a crystal of the same with 1 equivalent of L-tartaric acid obtained in the Examples and Reference Examples.
The dynamic vapor sorption test was conducted for measurement according to the following conditions.
Approximately 10 mg of each sample was packed in a dedicated quartz holder, and the weight of the sample at each humidity was continuously measured and recorded under the following conditions.

[2] = Blood concentration measurement test; type: in vivo, female rats (Crl:CD (SD)); settings: rat; for AUC(0-t): read-out: AUC0-6hr
Protocol: Blood concentration measurement tests were conducted for the type I crystal of compound (I), the type II crystal of compound (I), and the type II crystal of compound (I) with 1 equivalent of fumarate obtained in the Examples. Specifically, 0.5% HPMC containing 0.1N hydrochloric acid was used for the type I crystal of compound (I) and 0.5% HPMC was used for the type II crystal of compound (I) and the type II crystal of compound (I) with 1 equivalent of fumaric acid to convert each crystal into the compound (I) (free-form) in terms of molecular weight so as to prepare suspensions of 100 mg/10 mL and 300 mg/10 mL. These administration solutions were orally administered to female rats (Crl:CD (SD), Charles River Laboratories Japan, Inc.) kept under feeding conditions at a volume of 10 mL/kg body weight using an oral administration sonde. After administration, the rats were returned to the rat cage and their conditions were checked. Water and feeding were freely available in the cage. At 0.5, 1, 2, 4, and 6 hours after administration, the rats were anesthetized with isoflurane, and approximately 80 μL of blood was collected from the jugular vein using a heparin-coated syringe and an injection needle (25 G).
The collected blood was ice-cooled and plasma was separated by centrifugation. After the blood collection was completed, the rats were returned to the rat cage and the state after awakening of anesthesia was checked. After the final blood collection, the depth of isoflurane anesthesia was checked. Then, the limbs were fixed in a supine position with a small animal experiment holding apparatus, and the abdomen was opened such that each rat was euthanized by exsanguination through an incision in the abdominal aorta and vena cava.
AUC0-6 hr (Area under the blood concentration-time curve for 0 to 6 hours after administration calculated by the trapezoidal method), Cmax (maximum blood concentration), and Tmax (time to reach maximum blood concentration) were calculated from the concentration of the compound (I) in each plasma measured by the MRM method using LC/MS/MS and quantified from the calibration curve using Phoenix WinNonlin (v6.4.0,Certara USA, Inc.).

Solid stability test = type: physicochemical; settings: for Amount of related substances after storage / Chemical purity after storage / change in the powder X-ray diffraction pattern / increase in related substances: 60° C. (closed system), 4 weeks
Protocol: The free-form type II crystals of the compound (I) and type II crystals thereof with 1 equivalent of fumaric acid obtained in the Examples and Comparative Examples were evaluated for solid stability after storage for 4 weeks. • Storage condition: 60° C. (closed system) • Storage period: 4 weeks • Stored amount: Approximately 30 mg • Storage container: Glass bottle
Approximately 1 mg of a sample was weighed, dissolved in approximately 1 mL of a liquid mixture of water/acetonitrile (1:1), and 5 μL of this solution was accurately measured. Changes in the amount of related substances (the amount of substances detected other compound (I)) were analyzed by HPLC by the following method. Hplc Analysis Method (Stability Test)
The amount of related substances in the sample solution was measured by HPLC analysis. Handling of the apparatuses, including data processing, was in accordance with the methods and procedures instructed for each apparatus. • Column: XSelect CSH C18 (4.6×150 mm, 3.5 μm) manufactured by Waters • UV detection: 246 nm • Column temperature: 40° C. • Flow rate: 1.0 mL/min • Sample cooler: 5° C. • Sample concentration: 1 mg/mL • Mobile phase A: Liquid mixture of 5 mmol/L ammonium formate buffer (pH 6.5)/acetonitrile (9:1) • Mobile phase B: Acetonitrile

[3] = non-clinical tests; substrates of p-gp or Bcrp; cited from earlier work
brain metastatic cancer = settings: clinical tests; cited from earlier work
[4] = female, Crl:CD (SD), plasma, po, 100 mg/kg
[5] = oral, 300 mg/kg, listed as Type I crystal of compound (I) (with hydrochloric acid)
[6] = oral, listed as type I crystal of compound (I) with hydrochloric acid
[7] = oral, 100 mg/kg, listed as Type II crystal of compound (I) with 1 equivalent of fumaric acid
[8] = oral, 300 mg/kg, listed as Type II crystal of compound (I) with 1 equivalent of fumaric acid
[9] = listed as Type II crystal with 1 equivalent of fumaric acid

Structure (SMILES) | hygroscopicity determination [1] | Weight change rate, Adsorption ([1]; relative humidity 5%) [%] | Weight change rate, Desorption ([1]; relative humidity 5%) [%] | Weight change rate, Adsorption ([1]; relative humidity 20%) [%] | Weight change rate, Desorption ([1]; relative humidity 20%) [%] | Weight change rate, Adsorption ([1]; relative humidity 40%) [%] | Weight change rate, Desorption ([1]; relative humidity 40%) [%] | Weight change rate, Adsorption ([1]; relative humidity 60%) [%] | Weight change rate, Desorption ([1]; relative humidity 60%) [%] | Weight change rate, Adsorption ([1]; relative humidity 80%) [%] | Weight change rate, Desorption ([1]; relative humidity 80%) [%] | Weight change rate, Desorption ([1]; relative humidity 95%) [%] | AUC 0-6 hr increase when the dose was increased from 100 mg/kg to 300 mg/kg ([2]; oral) [times] | Cmax increase when the dose was increased from 100 mg/kg to 300 mg/kg ([2]; oral) [times] | change in the powder X-ray diffraction pattern (Solid stability test) | increase in related substances (Solid stability test) | Weight change rate, Adsorption ([1]; relative humidity 95%) [%] | also measured
C=CC(=O)N1C[C@H](n2c(C#CC3CC3)c(C(=O)N[C@H](C)c3ccccc3)c3c(N)ncnc32)C[C@@H]1C [free-form type II crystal of compound (I)] [7-((3R,5S)-1-acryloyl-5-methylpyrrolidin-3-yl)-4-amino-6-(cyclopropylethynyl)-N—((R)-1-phenylethyl)-7H-pyrrolo[2,3-d]pyrimidine-5-carboxamide] | almost non-hygroscopic | 0.01 | 0.01 | 0.02 | 0.03 | 0.05 | 0.06 | 0.08 | 0.08 | 0.10 | 0.11 | 0.12 | 1.5 | 1.2 | no change | almost no increase | – | AUC0-6hr ([2]; oral, 100 mg/kg): 5.79 µM·h; Cmax ([2]; oral, 100 mg/kg): 1880 nM; Tmax ([2]; oral, 100 mg/kg): 1.50 h; AUC0-6hr ([2]; oral, 300 mg/kg): 8.53 µM·h; Cmax ([2]; oral, 300 mg/kg): 2250 nM; Tmax ([2]; oral, 300 mg/kg): 3.33 h; Amount of related substances after storage (Solid stability test): 0.12%; Chemical purity after storage (Solid stability test): 99.88%; Amount of related substances before storage (Solid stability test): 0.13%; Chemical purity before storage (Solid stability test): 99.87%
C=CC(=O)N1C[C@H](n2c(C#CC3CC3)c(C(=O)N[C@H](C)c3ccccc3)c3c(N)ncnc32)C[C@@H]1C [type V crystal of compound (I) with 1 equivalent of fumaric ] [7-((3R,5S)-1-acryloyl-5-methylpyrrolidin-3-yl)-4-amino-6-(cyclopropylethynyl)-N—((R)-1-phenylethyl)-7H-pyrrolo[2,3-d]pyrimidine-5-carboxamide] | almost non-hygroscopic | 0.01 | 0.06 | 0.11 | 0.16 | 0.21 | 0.27 | 0.33 | 0.39 | 0.47 | 0.51 | 0.59 | – | – | – | – | – | –
CS(=O)(=O)CCNCc1ccc(-c2ccc3ncnc(Nc4ccc(OCc5cccc(F)c5)c(Cl)c4)c3c2)o1 [Lapatinib] | – | – | – | – | – | – | – | – | – | – | – | – | – | – | – | – | – | brain penetration properties [3]: limited; effects against brain metastatic cancer (brain metastatic cancer): sufficient effects of these agents could not be obtained

More lines, main results first:

hygroscopicity determination [1] | Weight change rate, Adsorption ([1]; relative humidity 5%) [%] | Weight change rate, Desorption ([1]; relative humidity 5%) [%] | Weight change rate, Adsorption ([1]; relative humidity 20%) [%] | Weight change rate, Desorption ([1]; relative humidity 20%) [%] | Weight change rate, Adsorption ([1]; relative humidity 40%) [%] | Weight change rate, Desorption ([1]; relative humidity 40%) [%] | Weight change rate, Adsorption ([1]; relative humidity 60%) [%] | Weight change rate, Desorption ([1]; relative humidity 60%) [%] | Weight change rate, Adsorption ([1]; relative humidity 80%) [%] | Weight change rate, Desorption ([1]; relative humidity 80%) [%] | Weight change rate, Desorption ([1]; relative humidity 95%) [%] | AUC 0-6 hr increase when the dose was increased from 100 mg/kg to 300 mg/kg ([2]; oral) [times] | Cmax increase when the dose was increased from 100 mg/kg to 300 mg/kg ([2]; oral) [times] | change in the powder X-ray diffraction pattern (Solid stability test) | increase in related substances (Solid stability test) | Weight change rate, Adsorption ([1]; relative humidity 95%) [%] | Structure (SMILES) | also measured
highly hygroscopic | 0.50 | 0.54 | 1.05 | 1.16 | 1.60 | 1.67 | 2.16 | 2.38 | 3.26 | 3.64 | 6.41 | – | – | – | – | 6.41 | C=CC(=O)N1C[C@H](n2c(C#CC3CC3)c(C(=O)N[C@H](C)c3ccccc3)c3c(N)ncnc32)C[C@@H]1C [crystal of compound (I) with 1 equivalent of L-tartaric acid] [7-((3R,5S)-1-acryloyl-5-methylpyrrolidin-3-yl)-4-amino-6-(cyclopropylethynyl)-N—((R)-1-phenylethyl)-7H-pyrrolo[2,3-d]pyrimidine-5-carboxamide] | –
almost non-hygroscopic | 0.01 | 0.01 | 0.04 | 0.04 | 0.10 | 0.13 | 0.26 | 0.60 | 0.50 | 0.69 | 0.72 | – | – | – | – | – | C=CC(=O)N1C[C@H](n2c(C#CC3CC3)c(C(=O)N[C@H](C)c3ccccc3)c3c(N)ncnc32)C[C@@H]1C [free-form type I crystal of compound (I), 7-((3R,5S)-1-acryloyl-5-methylpyrrolidin-3-yl)-4-amino-6-(cyclopropylethynyl)-N—((R)-1-phenylethyl)-7H-pyrrolo[2,3-d]pyrimidine-5-carboxamide] | Cmax [2, 4]: 2670 nM; AUC(0-t) [2, 4]: 7.42 µM·h; Tmax ([2]; female, Crl:CD (SD), plasma, po, 100 mg/kg, read-out: Tmax): 0.75 h; AUC(0-t) ([2]; female, Crl:CD (SD), plasma, po, 300 mg/kg): 7.11 µM·h; Cmax [2, 5]: 2250 nM; Tmax [2, 5]: 3.25 h; AUC 0-6 hr increase when the dose was increased from 100 mg/kg to 300 mg/kg [2, 6]: 1.0 times; Cmax increase when the dose was increased from 100 mg/kg to 300 mg/kg [2, 6]: 0.8 times
almost non-hygroscopic | 0.01 | 0.04 | 0.11 | 0.13 | 0.18 | 0.20 | 0.27 | 0.30 | 0.34 | 0.34 | 0.38 | 1.9 | 1.9 | no change | almost no increase | 0.38 | C=CC(=O)N1C[C@H](n2c(C#CC3CC3)c(C(=O)N[C@H](C)c3ccccc3)c3c(N)ncnc32)C[C@@H]1C [type II crystal of compound (I) with 1 equivalent of fumaric] [7-((3R,5S)-1-acryloyl-5-methylpyrrolidin-3-yl)-4-amino-6-(cyclopropylethynyl)-N—((R)-1-phenylethyl)-7H-pyrrolo[2,3-d]pyrimidine-5-carboxamide] | AUC0-6hr [2, 7]: 6.14 µM·h; Cmax [2, 7]: 2740 nM; Tmax [2, 7]: 1.25 h; AUC0-6 hr relative to the value of the type I crystal of compound (I) with the acid ([2]; oral, 300 mg/kg): 2.4 times; AUC0-6 hr relative to the value of the type II crystal of compound (I) ([2]; oral, 300 mg/kg): 2.4 times; Cmax relative to the value of the type I crystal of compound (I) with the acid ([2]; oral, 300 mg/kg): 1.7 times; Cmax relative to the value of the type II crystal of compound (I) ([2]; oral, 300 mg/kg): 1.4 times; AUC0-6hr [2, 8]: 11.9 µM·h; Cmax [2, 8]: 5340 nM; Tmax [2, 8]: 0.5 h; Amount of related substances after storage (Solid stability test; [9]): 0.15%; Chemical purity after storage (Solid stability test; [9]): 99.85%; Amount of related substances before storage (Solid stability test; [9]): 0.15%; Chemical purity before storage (Solid stability test; [9]): 99.85%
